# Experimental data reported in US10799507B2, “5-(7H-pyrrolo[2,3-d]pyrimidin-4-yl)-5-azaspiro[2.5]octane-8-carboxylic acid derivatives as novel JAK kinase inhibitors” (LEO Pharma A/S, priority 2017, dated 2020).
# Tests used:
# [1] = in vitro metabolic stability in human liver microsomes; type: in vitro ADME; settings: human, liver microsomes, 0.5 μM compound, 0.5 mg/mL microsomes, NADPH, 40 min, 37° C.; read-out: Human liver microsome Clapp (apparent intrinsic clearance)
# Summary of the method: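 Compounds at 0.5 μM incubated in duplicate with human liver microsomes (0.5 mg/mL), phosphate buffer and NADPH at 37 °C for 40 min, sampled at 0, 5, 10, 20, 40 min into cold acetonitrile. LC-TOF-MS depletion gave elimination rate constant, from which apparent intrinsic clearance (Clapp) was calculated.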
# JAK3 = JAK3 (Homo sapiens (Human), UniProt P52333); test: JAK kinase assay (HTRF), JAK3; type: biochemical; settings: catalytic domain, ATP at Km (2 μM)
# Sequence of JAK3 (P52333 822-1111): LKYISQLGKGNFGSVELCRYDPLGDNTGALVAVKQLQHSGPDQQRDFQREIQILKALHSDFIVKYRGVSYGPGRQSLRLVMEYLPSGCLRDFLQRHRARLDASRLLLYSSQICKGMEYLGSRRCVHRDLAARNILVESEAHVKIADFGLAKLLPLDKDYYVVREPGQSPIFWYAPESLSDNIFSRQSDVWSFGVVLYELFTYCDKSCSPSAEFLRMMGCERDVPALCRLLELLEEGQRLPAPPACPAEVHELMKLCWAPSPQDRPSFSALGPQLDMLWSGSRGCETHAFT
# Summary of the method: (§1)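 HTRF read-out of biotinylated TK peptide phosphorylation (1 μM) after a 20-30 min RT reaction in pH 7.0 Hepes buffer with 5 mM MgCl2 and 0.75% DMSO. JAK3 (His-tagged catalytic domain) used 2 μM ATP; TYK2 (GST-tagged, aa 871-1187) used 13 μM ATP plus 50 nM SEB, each at ATP Km.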
# TYK2 = TYK2 (Homo sapiens (Human), UniProt P29597); test: JAK kinase assay (HTRF), TYK2; type: biochemical; settings: catalytic domain, ATP at Km (13 μM)
# Sequence of TYK2 (P29597 871-1187): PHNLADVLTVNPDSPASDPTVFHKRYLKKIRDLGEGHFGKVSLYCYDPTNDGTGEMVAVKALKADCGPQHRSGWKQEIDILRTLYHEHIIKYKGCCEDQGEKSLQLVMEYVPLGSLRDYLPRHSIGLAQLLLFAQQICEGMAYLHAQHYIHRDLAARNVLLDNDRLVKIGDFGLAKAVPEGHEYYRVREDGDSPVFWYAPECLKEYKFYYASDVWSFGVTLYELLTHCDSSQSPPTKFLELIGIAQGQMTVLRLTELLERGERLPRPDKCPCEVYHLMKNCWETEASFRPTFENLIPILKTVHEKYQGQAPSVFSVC
# Summary of the method: as §1
# JAK1 = JAK1 (Homo sapiens (Human), UniProt P23458); test: JAK kinase assay (HTRF), JAK1; type: biochemical; settings: catalytic domain, ATP at Km (7 μM)
# Sequence of JAK1 (P23458 850-1154): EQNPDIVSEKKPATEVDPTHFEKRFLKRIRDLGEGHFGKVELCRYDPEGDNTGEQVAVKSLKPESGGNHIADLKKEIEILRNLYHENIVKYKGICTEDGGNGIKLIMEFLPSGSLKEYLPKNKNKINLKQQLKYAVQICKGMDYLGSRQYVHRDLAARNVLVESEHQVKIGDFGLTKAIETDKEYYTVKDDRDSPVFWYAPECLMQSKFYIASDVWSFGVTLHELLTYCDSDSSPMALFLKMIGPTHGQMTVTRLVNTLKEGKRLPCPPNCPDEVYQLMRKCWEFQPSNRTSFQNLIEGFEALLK
# Summary of the method: (§2)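 Catalytic-domain human JAK1 (GST-tagged, aa 850-1154) or His-tagged JAK2, baculovirus-expressed, phosphorylated 1 µM biotinylated TK peptide at Km ATP (JAK1 7 µM, 10 mM MgCl2, 50 nM SEB; JAK2 4 µM, 5 mM MgCl2) in pH 7.0 Hepes, 20-30 min RT. EDTA stop; overnight streptavidin-XL665/cryptate HTRF read.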
# JAK2 = JAK2 (Homo sapiens (Human), UniProt O60674); test: JAK kinase assay (HTRF), JAK2; type: biochemical; settings: catalytic domain, ATP at Km (4 μM)
# Sequence of JAK2 (O60674 849-1124): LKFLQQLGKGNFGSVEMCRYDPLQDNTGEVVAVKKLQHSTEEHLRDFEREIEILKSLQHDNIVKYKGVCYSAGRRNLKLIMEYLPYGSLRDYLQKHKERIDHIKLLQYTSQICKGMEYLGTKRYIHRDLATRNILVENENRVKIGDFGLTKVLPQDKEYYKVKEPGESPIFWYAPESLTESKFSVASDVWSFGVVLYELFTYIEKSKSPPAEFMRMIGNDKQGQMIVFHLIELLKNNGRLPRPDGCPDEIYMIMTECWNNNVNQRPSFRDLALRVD
# Summary of the method: as §2
Compound,CLint scaled at 0.5 μM [1],EC50 (JAK3),EC50 (TYK2),EC50 (JAK1),EC50 (JAK2)
"C[C@H](NC(=O)[C@H]1CCN(c2ncnc3[nH]ccc23)CC12CC2)[C@@H](O)c1ccc(F)cc1 [Example 6, (8S)-N-[(1S,2S)-2-(4-fluorophenyl)-2-hydroxy-1-methyl-ethyl]-5-(7H-pyrrolo[2,3-d]pyrimidin-4-yl)-5-azaspiro[2.5]octane-8-carboxamide]",> 200 mL/min/kg,7.4 nM,7 nM,0.6 nM,1.4 nM
"Cc1cc(C#N)ccc1[C@H](CO)NC(=O)[C@H]1CCN(c2ncnc3[nH]ccc23)CC12CC2 [Example 37, (8S)-N-[(1R)-1-(4-cyano-2-methyl-phenyl)-2-hydroxy-ethyl]-5-(7H-pyrrolo[2,3-d]pyrimidin-4-yl)-5-azaspiro[2.5]octane-8-carboxamide]",91 mL/min/kg,36.4 nM,102 nM,2 nM,10.2 nM
"O=C(N[C@H](CO)c1ccccc1)C1CCN(c2ncnc3[nH]ccc23)CC12CC2 (stereo partly drawn) [Example 127, N-[(1S)-2-hydroxy-1-phenyl-ethyl]-5-(7H-pyrrolo[2,3-d]pyrimidin-4-yl)-5-azaspiro[2.5]octane-8-carboxamide]",44 mL/min/kg,68.1 nM,1100 nM,19.9 nM,52.1 nM
"O=C(NC[C@@H](O)c1ccc(F)cc1)[C@H]1CCN(c2ncnc3[nH]ccc23)CC12CC2 [Example 7, (8S)-N-[(2S)-2-(4-fluorophenyl)-2-hydroxy-ethyl]-5-(7H-pyrrolo[2,3-d]pyrimidin-4-yl)-5-azaspiro[2.5]octane-8-carboxamide]",> 200 mL/min/kg,8.8 nM,4.9 nM,0.6 nM,1.7 nM
"Cc1cc([C@H](CO)NC(=O)[C@H]2CCN(c3ncnc4[nH]ccc34)CC23CC3)ccc1C#N [Example 54, (8S)-N-[(1R)-1-(4-cyano-3-methyl-phenyl)-2-hydroxy-ethyl]-5-(7H-pyrrolo[2,3-d]pyrimidin-4-yl)-5-azaspiro[2.5]octane-8-carboxamide]",142 mL/min/kg,33 nM,135 nM,3.6 nM,13.5 nM
"O=C(NCC1(CO)CC(F)(F)C1)C1CCN(c2ncnc3[nH]ccc23)CC12CC2 (stereo not drawn) [Example 35, N-[[3,3-difluoro-1-(hydroxymethyl)cyclobutyl]methyl]-5-(7H-pyrrolo[2,3-d]pyrimidin-4-yl)-5-azaspiro[2.5]octane-8-carboxamide]",41 mL/min/kg,8.6 nM,71.8 nM,1.9 nM,4.8 nM
"O=C(NCC1(O)CCCCC1)[C@H]1CCN(c2ncnc3[nH]ccc23)CC12CC2 [Example 74, (8S)-N-[(1-hydroxycyclohexyl)methyl]-5-(7H-pyrrolo[2,3-d]pyrimidin-4-yl)-5-azaspiro[2.5]octane-8-carboxamide]",37 mL/min/kg,23.2 nM,55.7 nM,6.1 nM,15.3 nM
"C[C@H](NC(=O)C1CCN(c2ncnc3[nH]ccc23)CC12CC2)c1ccc(C#N)cc1 (stereo partly drawn) [Example 21, N-[(1S)-1-(4-cyanophenyl)ethyl]-5-(7H-pyrrolo[2,3-d]pyrimidin-4-yl)-5-azaspiro[2.5]octane-8-carboxamide]",170 mL/min/kg,7.7 nM,52.1 nM,1.1 nM,2.5 nM
"Cc1cc([C@@H](O)CNC(=O)[C@H]2CCN(c3ncnc4[nH]ccc34)CC23CC3)ncc1F (single isomer, unassigned) [Example 110]",195 mL/min/kg,75.3 nM,188 nM,11.1 nM,26.3 nM
"O=C(OCC1CC(F)(F)C1)[C@H]1CCN(c2ncnc3[nH]ccc23)CC12CC2 [Example 154, (3,3-difluorocyclobutyl)methyl (8S)-5-(7H-pyrrolo[2,3-d]pyrimidin-4-yl)-5-azaspiro[2.5]octane-8-carboxylate]",149 mL/min/kg,5.1 nM,15.7 nM,0.9 nM,1.7 nM
"O=C(N[C@@H](CO)c1ccc(F)cc1)[C@H]1CCN(c2ncnc3[nH]ccc23)CC12CC2 [Example 17, (8S)-N-[(1R)-1-(4-fluorophenyl)-2-hydroxy-ethyl]-5-(7H-pyrrolo[2,3-d]pyrimidin-4-yl)-5-azaspiro[2.5]octane-8-carboxamide]",43 mL/min/kg,5.7 nM,20.5 nM,1 nM,3 nM
"C[C@H](NC(=O)[C@H]1CCN(c2ncnc3[nH]ccc23)CC12CC2)[C@@H](O)c1ccc(C#N)cc1 [Example 43, (8S)-N-[(1S,2S)-2-(4-cyanophenyl)-2-hydroxy-1-methyl-ethyl]-5-(7H-pyrrolo[2,3-d]pyrimidin-4-yl)-5-azaspiro[2.5]octane-8-carboxamide]",166 mL/min/kg,8.8 nM,131 nM,2.8 nM,5.2 nM
"O=C(NCC1(CO)CC(F)(F)C1)[C@H]1CCN(c2ncnc3[nH]ccc23)CC12CC2 [Example 23, (8S)-N-[[3,3-difluoro-1-(hydroxymethyl)cyclobutyl]methyl]-5-(7H-pyrrolo[2,3-d]pyrimidin-4-yl)-5-azaspiro[2.5]octane-8-carboxamide]",40 mL/min/kg,6.7 nM,19.8 nM,1.3 nM,2.7 nM
"O=C(NC[C@@H](O)c1ccc(F)cn1)[C@H]1CCN(c2ncnc3[nH]ccc23)CC12CC2 [Example 12, (8S)-N-[(2R)-2-(5-fluoro-2-pyridyl)-2-hydroxy-ethyl]-5-(7H-pyrrolo[2,3-d]pyrimidin-4-yl)-5-azaspiro[2.5]octane-8-carboxamide]",143 mL/min/kg,26.5 nM,13.9 nM,0.8 nM,4 nM
"N#Cc1ccc([C@@H](O)CNC(=O)[C@H]2CCN(c3ncnc4[nH]ccc34)CC23CC3)nc1 [Example 36, (8S)-N-[(2S)-2-(5-cyano-2-pyridyl)-2-hydroxy-ethyl]-5-(7H-pyrrolo[2,3-d]pyrimidin-4-yl)-5-azaspiro[2.5]octane-8-carboxamide]",72 mL/min/kg,25.2 nM,70.5 nM,2 nM,8.7 nM
"C[C@H](NC(=O)[C@H]1CCN(c2ncnc3[nH]ccc23)CC12CC2)c1ccc(C#N)c(F)c1 [Example 14, (8S)-N-[(1S)-1-(4-cyano-3-fluoro-phenyl)ethyl]-5-(7H-pyrrolo[2,3-d]pyrimidin-4-yl)-5-azaspiro[2.5]octane-8-carboxamide]",> 200 mL/min/kg,6.5 nM,26.8 nM,0.9 nM,2.2 nM
"O=C(NCC(O)C1CCCCC1)[C@H]1CCN(c2ncnc3[nH]ccc23)CC12CC2 (stereo partly drawn) [Example 2, (8S)-N-(2-cyclohexyl-2-hydroxy-ethyl)-5-(7H-pyrrolo[2,3-d]pyrimidin-4-yl)-5-azaspiro[2.5]octane-8-carboxamide]",> 200 mL/min/kg,3.7 nM,4.6 nM,0.5 nM,1.3 nM
"N#Cc1ccc(CNC(=O)C2CCN(c3ncnc4[nH]ccc34)CC23CC3)cc1 (stereo not drawn) [Example 26, N-[(4-cyanophenyl)methyl]-5-(7H-pyrrolo[2,3-d]pyrimidin-4-yl)-5-azaspiro[2.5]octane-8-carboxamide]",78 mL/min/kg,11.2 nM,196 nM,1.4 nM,6.4 nM
"N#Cc1ccc([C@@H](CO)NC(=O)C2CCN(c3ncnc4[nH]ccc34)CC23CC3)cc1 (stereo partly drawn) [Example 94, N-[(1S)-1-(4-cyanophenyl)-2-hydroxy-ethyl]-5-(7H-pyrrolo[2,3-d]pyrimidin-4-yl)-5-azaspiro[2.5]octane-8-carboxamide]",23 mL/min/kg,91.1 nM,967 nM,8.6 nM,53.7 nM
"Cc1cc([C@H](O)[C@H](C)NC(=O)[C@H]2CCN(c3ncnc4[nH]ccc34)CC23CC3)ccc1F [Example 40, (8S)-N-[(1S,2S)-2-(4-fluoro-3-methyl-phenyl)-2-hydroxy-1-methyl-ethyl]-5-(7H-pyrrolo[2,3-d]pyrimidin-4-yl)-5-azaspiro[2.5]octane-8-carboxamide]",> 200 mL/min/kg,39.5 nM,40.6 nM,2.4 nM,8.3 nM
"C[C@H](NC(=O)[C@H]1CCN(c2ncnc3[nH]ccc23)CC12CC2)[C@@H](O)C1CCCC1 [Example 5, (8S)-N-[(1S,2S)-2-cyclopentyl-2-hydroxy-1-methyl-ethyl]-5-(7H-pyrrolo[2,3-d]pyrimidin-4-yl)-5-azaspiro[2.5]octane-8-carboxamide]",> 200 mL/min/kg,2.3 nM,6.3 nM,0.6 nM,1.1 nM
